Results taken from patent US20240158408A1, “Nitrogen-Containing Heterocyclic Compound, Pharmaceutical Compositions thereof and Use thereof” (280 Bio, Inc., priority 2022, published 2024).

target: PI3Kα (Homo sapiens (Human), UniProt P42336); experiment: ADP-Glo Kinase Assay, PI3Kα enzyme activity inhibition; settings: ADP-Glo; ATP 25 μM; PIP2 50 μg/mL; 1 hour at room temperature
Sequence (P42336 whole entry): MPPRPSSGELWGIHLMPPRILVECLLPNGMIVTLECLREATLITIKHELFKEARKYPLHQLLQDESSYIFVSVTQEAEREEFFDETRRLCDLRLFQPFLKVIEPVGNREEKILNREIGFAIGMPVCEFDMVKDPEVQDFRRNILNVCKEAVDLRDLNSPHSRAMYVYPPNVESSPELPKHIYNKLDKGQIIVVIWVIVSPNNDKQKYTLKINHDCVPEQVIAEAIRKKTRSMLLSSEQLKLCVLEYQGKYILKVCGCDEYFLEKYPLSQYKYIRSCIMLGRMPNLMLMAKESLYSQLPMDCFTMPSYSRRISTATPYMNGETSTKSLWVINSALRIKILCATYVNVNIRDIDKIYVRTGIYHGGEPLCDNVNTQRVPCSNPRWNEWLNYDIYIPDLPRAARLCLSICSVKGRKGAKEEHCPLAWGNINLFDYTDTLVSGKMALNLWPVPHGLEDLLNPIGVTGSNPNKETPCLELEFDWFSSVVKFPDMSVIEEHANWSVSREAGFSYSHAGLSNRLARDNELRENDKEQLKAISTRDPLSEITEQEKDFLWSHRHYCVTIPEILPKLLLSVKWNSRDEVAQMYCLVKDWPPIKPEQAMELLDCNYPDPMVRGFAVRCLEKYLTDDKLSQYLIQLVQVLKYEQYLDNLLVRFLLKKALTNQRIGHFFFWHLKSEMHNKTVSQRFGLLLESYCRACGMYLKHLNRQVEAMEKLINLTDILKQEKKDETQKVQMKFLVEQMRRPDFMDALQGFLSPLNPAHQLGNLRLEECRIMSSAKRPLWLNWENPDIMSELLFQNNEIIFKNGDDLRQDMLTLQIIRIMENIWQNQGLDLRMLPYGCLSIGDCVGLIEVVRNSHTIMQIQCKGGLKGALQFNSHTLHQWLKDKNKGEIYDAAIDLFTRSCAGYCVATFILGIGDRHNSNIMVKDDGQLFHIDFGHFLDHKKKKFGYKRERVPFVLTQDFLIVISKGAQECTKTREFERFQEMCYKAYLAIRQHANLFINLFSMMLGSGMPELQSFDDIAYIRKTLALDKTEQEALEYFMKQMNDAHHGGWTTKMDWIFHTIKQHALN
Sequence (P27986 whole entry partner): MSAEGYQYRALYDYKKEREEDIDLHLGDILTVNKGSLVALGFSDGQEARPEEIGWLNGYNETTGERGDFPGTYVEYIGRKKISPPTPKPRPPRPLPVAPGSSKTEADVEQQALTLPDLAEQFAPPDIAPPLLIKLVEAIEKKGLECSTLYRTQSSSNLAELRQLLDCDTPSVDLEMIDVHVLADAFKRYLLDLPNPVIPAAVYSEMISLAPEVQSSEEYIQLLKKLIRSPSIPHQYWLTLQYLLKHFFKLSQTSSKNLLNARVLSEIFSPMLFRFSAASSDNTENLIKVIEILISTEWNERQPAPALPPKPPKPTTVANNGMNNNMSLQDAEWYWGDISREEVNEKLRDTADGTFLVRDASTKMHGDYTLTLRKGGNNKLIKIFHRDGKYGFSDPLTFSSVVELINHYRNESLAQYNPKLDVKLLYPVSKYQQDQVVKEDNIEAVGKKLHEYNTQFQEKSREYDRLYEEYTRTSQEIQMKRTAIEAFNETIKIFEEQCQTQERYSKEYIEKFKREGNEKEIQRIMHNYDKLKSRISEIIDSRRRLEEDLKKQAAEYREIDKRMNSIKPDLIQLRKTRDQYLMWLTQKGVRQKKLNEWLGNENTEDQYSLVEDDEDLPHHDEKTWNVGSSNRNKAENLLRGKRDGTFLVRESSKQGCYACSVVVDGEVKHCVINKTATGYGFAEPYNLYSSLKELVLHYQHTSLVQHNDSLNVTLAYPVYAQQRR
Method: The ADP-Glo Kinase Assay Kit was used for the experiments. The following buffer solutions were prepared: 50 mM HEPES, pH 7.5, 3 mM MgCl2, 1 mM EGTA, 100 mM NaCl, 0.03% CHAPS, 2 mM DTT. The tested compound samples were dissolved in DMSO and added to the screening system at a certain starting concentration of, for example, 10 μM, diluted 3-fold, while setting a DMSO control and an unkinase control. […] The reaction system was reacted at room temperature for 1 hour, then terminated by adding a terminal reagent (ADP-Glo reagent, 5 μL), and the ADP content in the system was detected using a detection reagent (Kinase Detection Reagent, 10 μL). Signal data was collected using the Envision instrument. Calculated the % inhibition according to the following formula: % inhibition=(DMSO control signal value−sample signal value)! (DMSO control signal value −unkinase control signal value).

`O=C(Nc1cc(-c2c(C(F)(F)F)n[nH]c2-c2ccccc2)c2c3c1C(c1cc(F)ccc1Cl)NC(=O)N3CC2)c1cc(F)cc(C(F)(F)F)c1` (stereo not drawn) [YL049] was tested. Which “PI3Kaα IC50” value did it give?
Its value is “+++ (+++ represents IC50>10 μM)”.

`Nc1cc(-c2cc(Nc3nccc4c(C(F)(F)F)cc(F)cc34)c3c4c2CCN4C(=O)NC3c2cc(F)ccc2Cl)n[nH]1` (stereo not drawn) [YL044] was tested. Which “PI3Kaα IC50” value did it give?
Its value is “++ (++ represents 250 nM<IC50<=10 μM)”.

With `Cc1ccccc1C1NC(=O)c2cccc3ccc(NC(=O)c4csc5ccccc45)c1c23` (stereo not drawn) [YL004] as the molecule, how does the “PI3Kaα IC50” value read?
The value was “+++ (+++ represents IC50>10 μM)”.

`N#Cc1cc(N)ccc1-c1cc(NC(=O)c2cc(F)cc(C(F)(F)F)c2)c2c3c1CCN3C(=O)NC2c1cc(F)ccc1Cl` (stereo not drawn) [YL150] was tested. Which “PI3Kaα IC50” value did it give?
Its value is “++ (++ represents 250 nM<IC50<=10 μM)”.

How did the “PI3Kaα IC50” value turn out when `O=C1NC(c2cc(F)ccc2Cl)c2c(Nc3nccc4c(C(F)(F)F)cc(F)cc34)cc(F)c3c2N1CC3` (stereo not drawn) [YL045] was run?
The value was “+++ (+++ represents IC50>10 μM)”.

How did the “PI3Kaα IC50” value turn out when `O=C(Nc1cc(Br)c2c3c1C(c1cccc(F)c1)NC(=O)N3CC2)c1cc(F)cc(C(F)(F)F)c1` (stereo not drawn) [YL062] was run?
Its value is “+++ (+++ represents IC50>10 μM)”.

`O=C(Nc1cc(-c2c[nH]c3ncc(C(F)(F)F)cc23)c2c3c1C(c1cc(F)ccc1Cl)NC(=O)N3CC2)c1cc(F)cc(C(F)(F)F)c1` (stereo not drawn) [YL036] was tested. Which “PI3Kaα IC50” value did it give?
Its value is “++ (++ represents 250 nM<IC50<=10 μM)”.

How did the “PI3Kaα IC50” value turn out when `C[C@@H](O)C(=O)Nc1cc(NC(=O)c2cc(F)cc(C(F)(F)F)c2)c2c3c1CCN3C(=O)NC2c1cc(F)ccc1Cl` (stereo partly drawn) [YL031] was run?
Its value is “+++ (+++ represents IC50>10 μM)”.

With `Cc1cc(-c2cc(NC(=O)c3cc(F)cc(C(F)(F)F)c3)c3c4c2CCN4C(=O)NC3c2cc(F)ccc2Cl)n[nH]1` (stereo not drawn) [YL070] as the molecule, how does the “PI3Kaα IC50” value read?
The value was “+++ (+++ represents IC50>10 μM)”.

For `Cn1nc(C(F)(F)F)cc1-c1cc(NC(=O)c2cc(F)cc(C(F)(F)F)c2)c2c3c1CCN3C(=O)NC2c1cc(F)ccc1Cl` (stereo not drawn) [YL014], which “PI3Kaα IC50” value is on record?
The value was “++ (++ represents 250 nM<IC50<=10 μM)”.

How did the “PI3Kaα IC50” value turn out when `N#Cc1c(-c2cc(NC(=O)c3cc(F)cc(C(F)(F)F)c3)c3c4c2CCN4C(=O)NC3c2cc(F)ccc2Cl)ccc2[nH]ncc12` (stereo not drawn) [YL142] was run?
The value was “+++ (+++ represents IC50>10 μM)”.

`O=C(Nc1cc(Br)c2c3c1C(c1cc(F)ccc1Br)NC(=O)N3CC2)c1cc(F)cc(C(F)(F)F)c1` (stereo not drawn) [YL063] was tested. Which “PI3Kaα IC50” value did it give?
Its value is “++ (++ represents 250 nM<IC50<=10 μM)”.

`O=C(Nc1cc(-c2ccc3ncnn3c2C(F)(F)F)c2c3c1C(c1cc(F)ccc1Cl)NC(=O)N3CC2)c1cc(F)cc(C(F)(F)F)c1` (stereo not drawn) [YL145] was tested. Which “PI3Kaα IC50” value did it give?
Its value is “+++ (+++ represents IC50>10 μM)”.

How did the “PI3Kaα IC50” value turn out when `O=C(Nc1cc(-c2ccc3ncnn3c2F)c2c3c1C(c1cc(F)ccc1Cl)NC(=O)N3CC2)c1cc(F)cc(C(F)(F)F)c1` (stereo not drawn) [YL129] was run?
The value was “+++ (+++ represents IC50>10 μM)”.

`O=C(Nc1cc(-c2nn(Cc3ccccc3)cc2F)c2c3c1C(c1cc(F)ccc1Cl)NC(=O)N3CC2)c1cc(F)cc(C(F)(F)F)c1` (stereo not drawn) [YL061] was tested. Which “PI3Kaα IC50” value did it give?
The value was “+++ (+++ represents IC50>10 μM)”.

`Cc1cc(NC(=O)c2cc(F)cc(C(F)(F)F)c2)c2c3c1CCN3C(=O)NC2c1cc(F)ccc1Cl` (stereo not drawn) [YL020] was tested. Which “PI3Kaα IC50” value did it give?
The value was “+++ (+++ represents IC50>10 μM)”.

`COc1c(-c2cc(NC(=O)c3cc(F)cc(C(F)(F)F)c3)c3c4c2CCN4C(=O)NC3c2cc(F)ccc2Cl)ccc2ncnn12` (stereo not drawn) [YL146] was tested. Which “PI3Kaα IC50” value did it give?
The value was “+++ (+++ represents IC50>10 μM)”.

`Cc1nc[nH]c1-c1cc(NC(=O)c2cc(F)cc(C(F)(F)F)c2)c2c3c1CCN3C(=O)NC2c1cc(F)ccc1Cl` (stereo not drawn) [YL068] was tested. Which “PI3Kaα IC50” value did it give?
Its value is “++ (++ represents 250 nM<IC50<=10 μM)”.

Which “PI3Kaα IC50” value does the source give for `O=C(Nc1cc(-c2cnoc2)c2c3c1C(c1cc(F)ccc1Cl)NC(=O)N3CC2)c1cc(F)cc(C(F)(F)F)c1` (stereo not drawn) [YL018] here?
The value was “++ (++ represents 250 nM<IC50<=10 μM)”.

With `O=C(Nc1cc(Br)c2c3c1C(c1ccccc1)NC(=O)N3CC2)c1cc(F)cc(C(F)(F)F)c1` (stereo not drawn) [YL064] as the molecule, how does the “PI3Kaα IC50” value read?
Its value is “+++ (+++ represents IC50>10 μM)”.

`O=C1NC(c2cc(F)ccc2Cl)c2c(-c3nc4c(F)cc(C(F)(F)F)cc4[nH]3)ccc3c2N1CC3` (stereo not drawn) [YL032] was tested. Which “PI3Kaα IC50” value did it give?
The value was “++ (++ represents 250 nM<IC50<=10 μM)”.

How did the “PI3Kaα IC50” value turn out when `O=C(Nc1cc(B(O)O)c2c3c1C(c1cc(F)ccc1Cl)NC(=O)N3CC2)c1cc(F)cc(C(F)(F)F)c1` (stereo not drawn) [YL019] was run?
The value was “++ (++ represents 250 nM<IC50<=10 μM)”.

With `N#Cc1ncccc1-c1cc(NC(=O)c2cc(F)cc(C(F)(F)F)c2)c2c3c1CCN3C(=O)NC2c1cc(F)ccc1Cl` (stereo not drawn) [YL136] as the molecule, how does the “PI3Kaα IC50” value read?
The value was “++ (++ represents 250 nM<IC50<=10 μM)”.

Which “PI3Kaα IC50” value does the source give for `N#Cc1nc(N)ncc1-c1cc(NC(=O)c2cc(F)cc(C(F)(F)F)c2)c2c3c1CCN3C(=O)NC2c1cc(F)ccc1Cl` (stereo not drawn) [YL137] here?
The value was “+++ (+++ represents IC50>10 μM)”.

same assay, conditions: PI3Kaα IC50, ADP-Glo; ATP 25 μM; PIP2 50 μg/mL; 1 hour at room temperature

How did the IC50 turn out when `O=C(Nc1cc(O)c2c3c1C(c1cc(F)ccc1Cl)NC(=O)N3CC2)c1cc(F)cc(C(F)(F)F)c1` (stereo not drawn) [YL076] was run?
The IC50 was 0.25 to 10 µM.

`O=C(Nc1cc(Br)c2c3c1C(c1cc(Cl)ccc1Cl)NC(=O)N3CC2)c1cc(F)cc(C(F)(F)F)c1` (stereo not drawn) [YL093] was tested. Which IC50 did it give?
Its IC50 is 0.25 to 10 µM.

With `N#Cc1c(-c2cc(NC(=O)c3cc(F)cc(C(F)(F)F)c3)c3c4c2CCN4C(=O)NC3c2cc(F)ccc2Cl)cc(F)c2ncnn12` (stereo not drawn) [YL149] as the molecule, how does the IC50 read?
Its IC50 is over 10 µM.

For `Nc1n[nH]cc1-c1cc(NC(=O)c2cc(F)cc(C(F)(F)F)c2)c2c3c1CCN3C(=O)NC2c1cc(F)ccc1Cl` (stereo not drawn) [YL073], which IC50 is on record?
Its IC50 is 0.25 to 10 µM.

`Nc1cc(NC(=O)c2cc(F)cc(C(F)(F)F)c2)c2c3c1CCN3C(=O)NC2c1cc(Cl)ccc1Cl` (stereo not drawn) [YL094] was tested. Which IC50 did it give?
Its IC50 is 0.25 to 10 µM.

Which IC50 does the source give for `Nc1cc(NC(=O)c2cc(F)cc(C(F)(F)F)c2)c2c3c1CCN3C(=O)NC2c1cc(Cl)ccc1C(F)(F)F` (stereo not drawn) [YL095] here?
Its IC50 is 0.25 to 10 µM.
